Source: paper PMC5478727, “A Novel Small Molecule GDNF Receptor RET Agonist, BT13, Promotes Neurite Growth from Sensory Neurons in Vitro and Attenuates Experimental Neuropathy in the Rat” (Frontiers in Pharmacology, 2017)

How the values were obtained:
[1] = molecular target: T1, opioid receptor kappa (KOP) (Rattus norvegicus, UniProt P34975); experiment: CEREP Kappa (KOP) (agonist radioligand); format: binding; conditions: BT13 1 μM; Cat. No. 1971; average of duplicate; read-out: Percentage of inhibition/potentiation from control
T1 construct: purchased CEREP (contract assay) 1971
T1 sequence (P34975 whole entry): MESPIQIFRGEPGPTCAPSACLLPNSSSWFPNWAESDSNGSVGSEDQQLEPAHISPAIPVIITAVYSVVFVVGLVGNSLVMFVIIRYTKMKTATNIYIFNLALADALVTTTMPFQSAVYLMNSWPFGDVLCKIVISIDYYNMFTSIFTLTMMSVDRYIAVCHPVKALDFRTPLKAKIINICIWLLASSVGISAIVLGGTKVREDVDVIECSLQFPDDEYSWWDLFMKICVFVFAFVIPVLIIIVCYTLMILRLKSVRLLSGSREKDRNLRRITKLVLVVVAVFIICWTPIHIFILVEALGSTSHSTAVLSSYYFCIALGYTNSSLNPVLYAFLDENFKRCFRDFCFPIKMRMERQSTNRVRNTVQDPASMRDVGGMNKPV

[2] = system: dorsal root ganglia neurons of SNL rats; experiment: Immunohistochemistry of DRG neuronal markers in rats with spinal nerve ligation; format: in vivo, rat
Description: DRGs from rats with spinal nerve ligation treated with BT13 or vehicle were embedded in paraffin and sectioned (7 μm thickness). Sections were deparaffinized, subjected to citrate or basic antigen-retrieval procedure and probed with IB4-Alexa 488 [1:200; IB4-Alexa488, Cat# IB4 (isolectin Griffonia simplicifolia IB4) RRID:AB_2314664] and antibodies against calcitonin gene-related peptide (CGRP; 1:10,000, Peninsula Laboratory, Cat# T-4032 RRID:AB_2313775), NPY (1:10,000, Peninsula Laboratory, Cat# T-4070.0050 RRID:AB_518504), pErk1/2 (1:300, Cell Signaling, Cat# 4370L RRID:AB_2297462), pS6 (1:300, Cell Signaling, Cat# 4858L RRID:AB_1031194) or RET [1:100, kind gift of Dr. E. Kramer, Center for Molecular Neurobiology, University Medical Center Hamburg-Eppendorf, Hamburg, Germany (Meka et al., [2015])] and corresponding secondary antibodies conjugated with fluorophores (Donkey Anti-Rabbit Alexa Fluor 647 conjugate, Cat# A31573 RRID:AB_162544; Donkey anti-Mouse Alexa Fluor 647 conjugate, Cat# A-31571 RRID:AB_2536181; Goat anti-Guinea Pig, Alexa Fluor 568 conjugate, Cat# A-11075 RRID:AB_2534119, Thermo Fisher Scientific, USA) or horse radish peroxidase (VECTASTAIN Elite ABC-Peroxidase Kit antibody, Vector Laboratories, CA, USA, Cat# PK-6101 RRID:AB_2336820). In the latter case, to reveal staining slides were treated with ABC and DAB staining kits (Vector Laboratories, CA, USA) according to the manufacturer's instructions. Sections were co-stained with guinea pig anti-PGP9.5 antibodies (Abcam Cat# ab10410 RRID:AB_297150) whenever possible. Nuclei were visualized using hematoxylin or DAPI dyes. Sections were mounted in Immu-Mount (Thermo Scientific, Cat#9990402) or Coverquick 2000 (Q PATH, Cat#05547530) mounting media and images were taken with fluorescent (Zeiss Imager M2 Axio, Carl Zeiss, Germany) or bright-field (Olympus BX-61, Olympus, Japan) microscopes. Neurons were counted for two sections per DRG and the number of cell profiles with nuclei positive for each specific marker was normalized to the total number of the neurons (identified by PGP9.5 staining or by morphology) per section. Ret-positive neurons were clustered by size using Matlab software R2014b (Mathworks, USA). Statistical analysis was performed using data from three to six individual animals. To obtain sufficient sample size, the data from animals treated with 20 and 25 mg/kg of BT13 were combined.

dopamine receptor D2L = dopamine receptor D2L (Homo sapiens, UniProt P14416); experiment: CEREP D2L (h) (antagonist radioligand); format: binding; conditions: BT13 1 μM; Cat. No. 1405; average of duplicate; read-out: Percentage of inhibition/potentiation from control
Sequence of dopamine receptor D2L (P14416 whole entry): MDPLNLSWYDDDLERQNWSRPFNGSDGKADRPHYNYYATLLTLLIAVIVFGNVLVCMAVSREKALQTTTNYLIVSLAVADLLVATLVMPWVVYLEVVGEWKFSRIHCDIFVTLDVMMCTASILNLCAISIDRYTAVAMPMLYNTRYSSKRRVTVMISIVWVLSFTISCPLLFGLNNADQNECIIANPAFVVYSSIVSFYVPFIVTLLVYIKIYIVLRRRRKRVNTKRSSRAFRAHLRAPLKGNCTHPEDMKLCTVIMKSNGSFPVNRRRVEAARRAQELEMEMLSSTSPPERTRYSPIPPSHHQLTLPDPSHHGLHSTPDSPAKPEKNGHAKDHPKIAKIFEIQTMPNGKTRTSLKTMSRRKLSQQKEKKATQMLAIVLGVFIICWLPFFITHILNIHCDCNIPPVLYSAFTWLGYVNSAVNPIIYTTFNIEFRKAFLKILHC

[3] = SNL rats, BT13 vs vehicle, day 12
[4] = SNL rats, vs vehicle-treated animals

With CCN(CC)S(=O)(=O)c1ccc(OC)c(N2CCN(C(=O)c3ccc(F)cc3C(F)(F)F)CC2)c1 [BT13] as the compound, how does the inhibition at 1 µM [1] read?
The inhibition at 1 µM was 0%.

And the “reduction in the number of RET-positive cells in DRGs after SNL” value ([2]; IHC, day 12 after SNL)?
Its value is “restored”.

What about the “number of large RET-positive neurons in lesioned DRGs” value ([2]; IHC, size above 1,000 μm^2, vs contralateral) of the same compound?
The value was “increased”.

What about the “number of small RET-positive neurons in lesioned DRGs” value ([2]; IHC, size below 1,000 μm^2, vs contralateral) of the same compound?
The value was “decreased”.

What about the “IB4 positive cells per section in ipsilateral DRGs” value ([2]; SNL rats, BT13 20 and 25 mg/kg combined, day 12) of the same compound?
The value was 3%.

What about the “number of NPY-positive neurons in contralateral DRGs” value ([2]; SNL rats, BT13-treated, vehicle 0.0 ± 0.0) of the same compound?
The value was 0.0 ± 0.0.

And the “number of CGRP-positive neurons in contralateral DRGs” value ([2]; SNL rats, BT13-treated, vehicle 34.30 ± 1.344)?
The value was 25.09 ± 2.687.

What about the “number of IB4-positive neurons in contralateral DRGs” value ([2]; SNL rats, BT13-treated, vehicle 44.95 ± 4.295) of the same compound?
The value was 44.82 ± 1.960.

What about the “increase in number of CGRP-positive neurons in ipsilateral DRGs” value [2, 3] of the same compound?
Its value is ~ 2 times.

What about the “reduction in number of NPY-positive cells in ipsilateral DRGs” value [2, 3] of the same compound?
The value was ~ 25%.

And the “number of neurons positive for pErk in DRGs” value [2, 4]?
Its value is “increased”.

And the “number of neurons positive for pS6 in DRGs” value [2, 4]?
Its value is “increased”.

What about the inhibition at 1 µM (dopamine receptor D2L) of the same compound?
The inhibition at 1 µM was -3%.
